# Measurements from patent publication US20240415918A1, “Polypeptide and its use as a CCK receptor agonist/antagonist” (Centre for Regenerative Medicine & Health, Hong Kong …, priority 2021, published 2024).
# Where a SMILES comes first, the peptide text is derived from it. [ ]: non-standard residue; d: D form. NMeW = CN[C@@H](Cc1c[nH]c2ccccc12)C(=O)O; Phe(3-Br) = N[C@@H](Cc1cccc(Br)c1)C(=O)O; Aad = N[C@@H](CCCC(=O)O)C(=O)O; Aoc(2) = CCCCCC[C@H](N)C(=O)O; Nle = CCCC[C@H](N)C(=O)O
# Biological target: T1, CCK-B receptors (CHO-CCK) (Homo sapiens, UniProt P32239)
# T1 construct: expressed in transfected cells; host or cells: CHO (CHO-CCK model cells)
# T1 sequence (P32239 1-447): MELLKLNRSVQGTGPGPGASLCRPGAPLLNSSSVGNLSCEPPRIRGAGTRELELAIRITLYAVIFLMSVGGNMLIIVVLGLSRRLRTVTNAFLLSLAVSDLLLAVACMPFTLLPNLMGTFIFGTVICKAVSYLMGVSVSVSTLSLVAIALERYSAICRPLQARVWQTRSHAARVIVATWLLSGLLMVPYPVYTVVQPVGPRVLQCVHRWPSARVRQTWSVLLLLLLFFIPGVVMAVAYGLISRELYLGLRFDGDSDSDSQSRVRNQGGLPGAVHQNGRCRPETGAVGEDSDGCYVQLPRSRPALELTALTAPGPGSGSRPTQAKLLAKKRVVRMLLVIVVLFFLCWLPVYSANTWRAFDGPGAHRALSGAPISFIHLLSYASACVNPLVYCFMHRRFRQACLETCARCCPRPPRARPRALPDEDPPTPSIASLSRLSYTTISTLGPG
# Experiment: Calcium flux (Fluo-8) agonist test on CHO-CCK model cells
# Format: cell-based
# Details: CHO-CCK cells, Fluo-8 calcium flux; 100% control = 20 nM CCK8
# Method: • To detect changes in intracellular calcium ion concentration after the compound acts on model cells containing CCK-B receptors (CHO-CCK).
# • 1. The compound was formulated to a 10 mM mother liquor with DMSO, and then diluted into a series of 9 concentrations with a 3-fold gradient to form a 1000× stock solution.
# 2.1 Agonist • The compound stock solution was subjected to 200-fold dilution with HHBS buffer to form a 5× working solution.
# • 1. Plate CHO-CCK cells in a 96-well plate with media containing 1% FBS, 30,000 cells/well/100 μL, and incubate overnight at 37° C. • 2. Prepare 1×Fluo-8 analysis buffer: mix 9 mL of HHBS, 1 mL of 10× Pluronic F127 Plus and 20 μL of Fluo-8 thoroughly for later use. • 3. Add Fluo-8 dye working solution to the cell plate, 100 μL/well. First incubate in a 37° C. incubator for 30 min, and then take it out and incubate at room temperature in the dark for 30 min. • 4. In the process of incubating cells, the compounds to be detected were prepared with HHBS. • 5.
# The agonism/antagonism EC50 of the compound can be obtained by plotting the fitting curve with the agonism/antagonism percentage as Y-axis and the concentration of the compound as X-axis.
row,SMILES,EC50
1,"CSCC[C@H](NC(=O)[C@H](Cc1c[nH]c2ccccc12)NC(=O)[C@@H](C)N)C(=O)N[C@@H](CC(=O)O)C(=O)N[C@@H](Cc1cccc(Br)c1)C(=O)N[C@H](C)C(N)=O [HT-292, D-Ala-Trp-Met-Asp-Phe(3-Br)-D-Ala-NH2] (H-[dA]WMD[Phe(3-Br)][dA]-NH2)",1.45 µM

# Same assay, conditions: CHO-CCK cells, compound alone; bound in μM
row,SMILES,EC50
1,"CSCC[C@@H](NC(=O)[C@@H](CC(=O)O)NC(=O)[C@H](N)Cc1ccccc1)C(=O)N[C@H](Cc1c[nH]c2ccccc12)C(=O)O [HT-7, D-Phe-D-Asp-D-Met-D-Trp-COOH] (H-[dF][dD][dM][dW]-OH)",> 10 µM

# Same assay, conditions: compound at 1 nM, CHO-CCK cells
row,SMILES,% Act-Ave @ 1 nM
1,"CCCC[C@H](NC(=O)[C@H](Cc1c[nH]c2ccccc12)N(C)C(C)=O)C(=O)N[C@@H](CCCC(=O)O)C(=O)N[C@@H](Cc1cccc(Br)c1)C(N)=O [HT-271, Ac-Trp-Nle-Aa-Phe(3-Br)-NH2] (Ac-[NMeW][Nle][Aad][Phe(3-Br)]-NH2)",40.66%
2,"CCCCCC[C@H](NC(C)=O)C(=O)N[C@@H](CC(=O)O)C(=O)N[C@@H](Cc1cccc(Br)c1)C(N)=O [HT-281, Ac-Oa-Asp-Phe(3-Br)-NH2] (Ac-[Aoc(2)]-Asp-[Phe(3-Br)]-NH2)",−0.09%
3,"CCCC[C@H](NC(=O)[C@H](Cc1c[nH]c2ccccc12)N(C)C(=O)[C@@H](N)CCC(=O)O)C(=O)N[C@@H](CCCC(=O)O)C(=O)N[C@@H](Cc1cccc(Br)c1)C(N)=O [HT-277, Glu-(N-Me-Trp)-Nle-Aa-Phe(3-Br)-NH2] (H-E[NMeW][Nle][Aad][Phe(3-Br)]-NH2)",−0.13%

# Next, values leading:
row,% Act-Ave @ 1 nM,SMILES
1,−0.33%,"CSCC[C@H](NC(C)=O)C(=O)N[C@@H](CC(=O)O)C(=O)N[C@@H](Cc1ccccc1)C(N)=O [HT-280, Ac-Met-Asp-Phe-NH2] (Ac-Met-Asp-Phe-NH2)"
2,0.13%,"CSCC[C@H](NC(C)=O)C(=O)N[C@@H](CC(=O)O)C(=O)N[C@@H](Cc1cccc(Br)c1)C(N)=O [HT-282, Ac-Met-Asp-Phe(3-Br)-NH2] (Ac-Met-Asp-[Phe(3-Br)]-NH2)"

# Same assay, conditions: compound at 50 nM, CHO-CCK cells
row,SMILES,% Act-Ave @ 50 nM
1,"CCCC[C@H](NC(=O)[C@H](Cc1c[nH]c2ccccc12)N(C)C(C)=O)C(=O)N[C@@H](CCCC(=O)O)C(=O)N[C@@H](Cc1cccc(Br)c1)C(N)=O [HT-271, Ac-Trp-Nle-Aa-Phe(3-Br)-NH2] (Ac-[NMeW][Nle][Aad][Phe(3-Br)]-NH2)",104.56%
2,"CCCCCC[C@H](NC(C)=O)C(=O)N[C@@H](CC(=O)O)C(=O)N[C@@H](Cc1cccc(Br)c1)C(N)=O [HT-281, Ac-Oa-Asp-Phe(3-Br)-NH2] (Ac-[Aoc(2)]-Asp-[Phe(3-Br)]-NH2)",0.03%
3,"CCCC[C@H](NC(=O)[C@H](Cc1c[nH]c2ccccc12)N(C)C(=O)[C@@H](N)CCC(=O)O)C(=O)N[C@@H](CCCC(=O)O)C(=O)N[C@@H](Cc1cccc(Br)c1)C(N)=O [HT-277, Glu-(N-Me-Trp)-Nle-Aa-Phe(3-Br)-NH2] (H-E[NMeW][Nle][Aad][Phe(3-Br)]-NH2)",13.46%

# Further lines, results first:
row,% Act-Ave @ 50 nM,SMILES
1,−0.16%,"CSCC[C@H](NC(C)=O)C(=O)N[C@@H](CC(=O)O)C(=O)N[C@@H](Cc1ccccc1)C(N)=O [HT-280, Ac-Met-Asp-Phe-NH2] (Ac-Met-Asp-Phe-NH2)"
2,0.45%,"CSCC[C@H](NC(C)=O)C(=O)N[C@@H](CC(=O)O)C(=O)N[C@@H](Cc1cccc(Br)c1)C(N)=O [HT-282, Ac-Met-Asp-Phe(3-Br)-NH2] (Ac-Met-Asp-[Phe(3-Br)]-NH2)"

# Same assay, conditions: compound at 10 μM; percentage of signal of 20 nM CCK8 alone
row,SMILES,Agonistic Activity (%) at 10 μM
1,"Cc1ccc(C[C@H](NC(=O)[C@H](CC(=O)O)NC(=O)[C@H](CCS(C)(=O)=O)NC(=O)[C@H](N)Cc2c[nH]c3ccccc23)C(N)=O)cc1 [HT-64, D-Trp-Met(O2)-Asp-Phe(4-Me)-NH2]",17.43%
2,"COC(=O)C[C@H](NC(=O)[C@H](CCSC)NC(=O)[C@H](N)Cc1c[nH]c2ccccc12)C(=O)N[C@@H](Cc1ccc([N+](=O)[O-])cc1)C(N)=O [HT-84, D-Trp-Met-Asp(Ome)-Phe(4-NO2)-NH2]",3.24%
3,"COC(=O)C[C@H](NC(=O)[C@H](CCSC)NC(=O)[C@H](N)Cc1c[nH]c2ccccc12)C(=O)N[C@@H](Cc1ccc(N=[N+]=[N-])cc1)C(N)=O [HT-82, D-Trp-Met-Asp(Ome)-Phe(4-N3)-NH2]",12.78%
4,"COC(=O)C[C@H](NC(=O)[C@H](CCS(C)(=O)=O)NC(=O)[C@H](N)Cc1c[nH]c2ccccc12)C(=O)N[C@@H](Cc1ccc(C#N)cc1)C(N)=O [HT-134, D-Trp-Met(O2)-Asp(Ome)-Phe(4-CN)-NH2]",11.25%
5,"COC(=O)C[C@H](NC(=O)[C@H](CCS(C)(=O)=O)NC(=O)[C@H](N)Cc1c[nH]c2ccccc12)C(=O)N[C@@H](Cc1ccc(C)cc1)C(N)=O [HT-132, D-Trp-Met(O2)-Asp(Ome)-Phe(4-Me)-NH2]",−14.42%
6,"COC(=O)C[C@H](NC(=O)[C@H](CCS(C)(=O)=O)NC(=O)[C@H](N)Cc1c[nH]c2ccccc12)C(=O)N[C@@H](Cc1ccc(Cl)cc1)C(N)=O [HT-137, D-Trp-Met(O2)-Asp(Ome)-Phe(4-Cl)-NH2]",2.10%
7,"CS(=O)(=O)CC[C@H](NC(=O)[C@H](N)Cc1c[nH]c2ccccc12)C(=O)N[C@@H](CC(=O)OCCNc1cccc2c(O)cccc12)C(=O)N[C@@H](Cc1cccc(F)c1)C(N)=O [HT-163, D-Trp-Met(O2)-Asp(EDANS)-Phe(3-F)-NH2]",2.64%
8,"CS(=O)(=O)CC[C@H](NC(=O)[C@H](N)Cc1c[nH]c2ccccc12)C(=O)N[C@@H](CC(=O)O)C(=O)N[C@@H](Cc1ccccc1)C(N)=O [HT-17, D-Trp-Met(O2)-Asp-Phe-NH2]",19.12%
9,"COC(=O)C[C@H](NC(=O)[C@H](CC[S+](C)[O-])NC(=O)[C@H](N)Cc1c[nH]c2ccccc12)C(=O)N[C@@H](Cc1ccc(C#N)cc1)C(N)=O (stereo partly drawn) [HT-117, D-Trp-Met(O)-Asp(Ome)-Phe(4-CN)-NH2]",9.81%
10,"COC(=O)C[C@H](NC(=O)[C@H](CCS(C)(=O)=O)NC(=O)[C@H](N)Cc1c[nH]c2ccccc12)C(=O)N[C@@H](Cc1ccccc1[N+](=O)[O-])C(N)=O [HT-126, D-Trp-Met(O)-Asp(Ome)-Phe(2-NO2)-NH2]",9.50%
11,"Cc1ccc(C[C@H](NC(=O)[C@H](CC(=O)O)NC(=O)[C@H](CC[S+](C)[O-])NC(=O)[C@H](N)Cc2c[nH]c3ccccc23)C(N)=O)cc1 (stereo partly drawn) [HT-47, D-Trp-Met(O)-Asp-Phe(4-Me)-NH2]",26.99%

# Further lines, results first:
row,Agonistic Activity (%) at 10 μM,SMILES
1,6.93%,"COC(=O)C[C@H](NC(=O)[C@H](CC[S+](C)[O-])NC(=O)[C@H](N)Cc1c[nH]c2ccccc12)C(=O)N[C@@H](Cc1ccc(Br)cc1)C(N)=O (stereo partly drawn) [HT-119, D-Trp-Met(O)-Asp(Ome)-Phe(4-Br)-NH2]"
2,20.02%,"CS(=O)(=O)CC[C@H](NC(=O)[C@H](N)Cc1c[nH]c2ccccc12)C(=O)N[C@@H](CC(=O)O)C(=O)N[C@@H](Cc1ccc(Cl)cc1)C(N)=O [HT-69, D-Trp-Met(O2)-Asp-Phe(4-Cl)-NH2]"
3,0.73%,"COC(=O)C[C@H](NC(=O)[C@H](CCS(C)(=O)=O)NC(=O)[C@H](N)Cc1c[nH]c2ccccc12)C(=O)N[C@@H](Cc1cccc(Cl)c1)C(N)=O [HT-128, D-Trp-Met(O2)-Asp(Ome)-Phe(3-Cl)-NH2]"
4,1.79%,"COC(=O)C[C@H](NC(=O)[C@H](CCS(C)(=O)=O)NC(=O)[C@H](N)Cc1c[nH]c2ccccc12)C(=O)N[C@@H](Cc1ccccc1F)C(N)=O [HT-127, D-Trp-Met(O2)-Asp(Ome)-Phe(2-F)-NH2]"
5,2.69%,"COC(=O)C[C@H](NC(=O)[C@H](CCS(C)(=O)=O)NC(=O)[C@H](N)Cc1c[nH]c2ccccc12)C(=O)N[C@@H](Cc1ccc(Br)cc1)C(N)=O [HT-136, D-Trp-Met(O2)-Asp(Ome)-Phe(4-Br)-NH2]"
6,−9.73%,"COC(=O)C[C@H](NC(=O)[C@H](CC[S+](C)[O-])NC(=O)[C@H](N)Cc1c[nH]c2ccccc12)C(=O)N[C@@H](Cc1ccccc1)C(N)=O (stereo partly drawn) [HT-20, D-Trp-Met(O)-Asp(OMe)-Phe-NH2]"
7,6.07%,"CSCC[C@H](NC(=O)[C@H](N)Cc1c[nH]c2ccccc12)C(=O)N[C@@H](CC(=O)O)C(=O)N[C@@H](Cc1ccc(N=[N+]=[N-])cc1)C(N)=O [HT-31, D-Trp-Met-Asp-Phe(4-N3)-NH2]"
8,11.85%,"C[S+]([O-])CC[C@H](NC(=O)[C@H](N)Cc1c[nH]c2ccccc12)C(=O)N[C@@H](CC(=O)O)C(=O)N[C@@H](Cc1ccc([N+](=O)[O-])cc1)C(N)=O (stereo partly drawn) [HT-50, D-Trp-Met(O)-Asp-Phe(4-NO2)-NH2]"
9,23.63%,"CS(=O)(=O)CC[C@H](NC(=O)[C@H](N)Cc1c[nH]c2ccccc12)C(=O)N[C@@H](CC(=O)O)C(=O)N[C@@H](Cc1ccccc1[N+](=O)[O-])C(N)=O [HT-58, D-Trp-Met(O2)-Asp-Phe(2-NO2)-NH2]"
